Usually pIC50 stands for the IC50 on a negative log10 scale, so that one unit is a factor of ten. Read a low pIC50 as a large IC50.

One assay addresses T1, Aurora kinase A (Homo sapiens, UniProt O14965).
T1 sequence (O14965 whole entry): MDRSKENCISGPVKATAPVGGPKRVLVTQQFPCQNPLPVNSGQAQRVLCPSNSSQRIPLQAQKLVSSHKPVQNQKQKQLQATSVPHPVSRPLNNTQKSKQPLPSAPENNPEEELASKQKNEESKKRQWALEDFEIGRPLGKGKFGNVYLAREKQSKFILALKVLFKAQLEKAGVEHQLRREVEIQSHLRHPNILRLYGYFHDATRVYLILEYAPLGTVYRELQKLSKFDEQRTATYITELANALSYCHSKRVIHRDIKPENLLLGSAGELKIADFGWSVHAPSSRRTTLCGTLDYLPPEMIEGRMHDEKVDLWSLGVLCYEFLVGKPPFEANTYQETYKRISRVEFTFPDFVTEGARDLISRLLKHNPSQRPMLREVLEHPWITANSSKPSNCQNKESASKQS
As to the kind of experiment: Aurora Kinase Assay. The protocol: (§1) The kinase assay of Aurora A and B was measured using HTRF-kinEASE-STK discovery kit purchased from Cisbio.

For the next assay, the target named is Aurora kinase B (Homo sapiens, UniProt Q96GD4). Put plainly: Aurora Kinase Assay. As for the experimental part: as §1
Chain of Aurora kinase B (Q96GD4 whole entry): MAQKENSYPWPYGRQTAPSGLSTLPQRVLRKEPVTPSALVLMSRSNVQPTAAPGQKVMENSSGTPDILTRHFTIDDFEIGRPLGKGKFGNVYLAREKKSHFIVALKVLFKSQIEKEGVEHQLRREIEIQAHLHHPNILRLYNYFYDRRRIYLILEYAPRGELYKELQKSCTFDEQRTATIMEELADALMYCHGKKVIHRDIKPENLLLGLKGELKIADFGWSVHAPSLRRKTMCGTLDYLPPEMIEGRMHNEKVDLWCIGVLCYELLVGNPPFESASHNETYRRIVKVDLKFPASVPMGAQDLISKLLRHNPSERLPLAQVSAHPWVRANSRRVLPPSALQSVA

pIC50: −log10 of the molar value.

On to `Cc1ccc(Nc2ncnc3cc(OCCCN4CCCCC4)ccc23)cc1Nc1ncc(-c2cccnc2)cn1` [4-Aminoquinazoline derivative, 6b], for which the pIC50 on Aurora kinase A was 6.49; at Aurora kinase B, 6.31.

On to `CCOC(=O)c1csc2cc(Nc3ncnc4cc(OCCCN5CCN(C)CC5)ccc34)ccc12` [4-Aminoquinazoline derivative, 6f], for which the pIC50 is 6.95 at Aurora kinase A and 6.87 against Aurora kinase B.

Turning to `CCOC(=O)c1csc2cc(Nc3ncnc4cc(OCCCN(CC)CC)ccc34)ccc12` [4-Aminoquinazoline derivative, 6i], the pIC50 was 6.10 on Aurora kinase A and 6.05 against Aurora kinase B.

Regarding `CCN(CC)CCCOc1ccc2c(Nc3ccc(C)c(Nc4ncc(-c5cccnc5)cn4)c3)ncnc2c1` [4-Aminoquinazoline derivative, 6c], the pIC50 on Aurora kinase A is 7.01; at Aurora kinase B, 6.69.

Take `CCOC(=O)c1csc2cc(Nc3ncnc4cc(OCCCN5CCCC5)ccc34)ccc12` [4-Aminoquinazoline derivative, 6h]: the pIC50 was 7.21 at Aurora kinase A and 6.84 on Aurora kinase B.

For the compound `Cc1ccc(Nc2ncnc3cc(OCCCN4CCCC4)ccc23)cc1Nc1ncc(-c2cccnc2)cn1` [4-Aminoquinazoline derivative, 6d], the pIC50 was 7.11 at Aurora kinase A and 6.84 on Aurora kinase B.

Turning to `Cc1ccc(Nc2ncnc3cc(OCCCN4CCOCC4)ccc23)cc1Nc1ncc(-c2cccnc2)cn1` [4-Aminoquinazoline derivative, 6a], the pIC50 against Aurora kinase A is 6.75; on Aurora kinase B, 6.72.

As for `CCOC(=O)c1csc2cc(Nc3ncnc4cc(OCCCN5CCCCC5)ccc34)ccc12` [4-Aminoquinazoline derivative, 6g], the negative-log IC50 (pIC50) at Aurora kinase A is 6.09.

The record behind these values is BindingDB's records for doi:10.1111/cbdd.12089 (Southeast University, 2013).
